≈ marks a conversion by molar mass, not a printed value. Read-outs that look alike come from different tables or passages of the source.
How the values were obtained:
[1] = system: P-388 lymphocytic leukemia; assay: Survival study in tumor-bearing mice, P-388 leukemia model; assay type: in vivo; settings: 10^6 cells in DBA mice; 16 mg/kg; d1,5,9; intraperitoneally
Excerpt: Thus, in the lower level resistant cell lines, such as the ten-fold mitomycin C resistant L1210 and the tenfold adriamycin resistant 2780 ovarian cancer, Compound 1 maintained its complete activity as shown in Table II. The anti-tumor activity of compounds of the present invention in in vivo mouse murine models were studied. 3) Survival Studies In Tumor-Bearing Mice: 3.1 P-388 Leukemia Modles: One million P-388 leukemia cells originally obtained from American Type Culture Collection (Rockville, MD) are implanted into the peritoneum of adult DBA-2J male mice (Jackson Laboratories, Bar Harbor, ME). Twenty four hours later, drugs diluted in physiological saline are injected intraperitoneally at a volume of 0.1 mL/10 g body weight. The mice (10/group) are then followed for survival daily and compared to untreated tumor bearing mice. […] The perpendicular widths of the tumors are measured by caliper thrice weekly and converted to an estimated tumor mass according to the formula: ((1 X W)^2)/(2)= grams of tumor. [formula] wherein • W = width of tumor • l = length of tumor Tumor growth delay is calculated as the difference in days for tumors in treated mice to reach an estimated mass 750 mg or 1.5 g compared to that in untreated controls: Days to reach 750 mg (Treated - Control) = Days of Tumor Growth Delay [formula] […]

8226/DOX-40 = assay: In vitro tumor cell viability assay using MTT dye; assay type: cell-based, Human; settings: for IC50: Homo sapiens
Method: (§1) Compounds of the present invention were tested for their in vitro activity in tumor cells sensitive and resistant to standard anti-cancer agents. The tumor cell lines used in this protocol are 8226 human Myeloma^1; 8226/Dox-40^2, L-1210/Murine Leukemia, multidrug resistant L-210/^3, 2780 Human Ovarian Cancer and 2780/AD^4. Each of these resistant cell lines is known as a multidrug resistant or "MDR" cell line. These cell lines produce a 170,00 molecular weight membrane protein termed the P-glycoprotein which acts as an active drug efflux pump. Thus, once a cell produces the P-glycoprotein, it has the capability of pumping out of the cell a large variety of unrelated natural products. […] The protocol for measuring the effectiveness of compounds of the present invention is as follows: 2) In Vitro Tumor Cell Viability Assays Using MTT-Dye: Tumors are processed into a single cell suspension as described above. The cells are plated at a concentration of 3-5 X 10^4/1 mL well into plastic 96-well plates. […] Afterwards the medium containing the drug is removed, the cells are "washed" by centrifugation in fresh medium or phosphate-buffered saline (pH 7.4). A tetrazolium dye is then added (3,4,5-dimethylthiazol-2-yl)-2,5-diphenyl tetrazolium bromide (MTT). This dye forms a colored formazan product upon activation by mitochondrial reductases in viable cells. Typically, the formazan product is solubilized in acid-propanol or DMSO. The intensity of the color is proportional to viable cell numbers and this is quantitated by spectrophotometric absorbance ([…]) on a micro ELISA plate reader. Test results are calibrated in % control absorbance from untreated tumor cells (Mossman T: J Immunol Meth 65:55-63, 1983). Using the above procedure, Compound 1 was tested for its cytotoxic activity with respect to various tumor cell lines.

2780/AD = assay: In vitro tumor cell viability assay using MTT dye; assay type: cell-based, Human
Method: as §1

FRESH HUMAN TUMORS = assay: Colony forming assay in fresh human tumors, all tumor types; assay type: cell-based; settings: Total of all tumor types; .001 ug/mL continuously; tumor cell survival of less than 50% of control
Method: The clonogenic assays were conducted in accordance with the procedure described hereinbelow: 1) Colony Forming Assays in Soft Agar: Fresh human or murine tumors are disaggregated into single cell suspensions using mechanical, hypoosmotic and/or enzymatic (trypsin) methods. The single cells (about 5 X 10^4-10^5) are plated in 35 mm plastic petri dishes onto a 1 ml "feeder layer" of 0.3% agar dissolved in growth medium containing 5-10% vol/vol of heat-inactivated fetal bovine serum, molten 0.3% agar and the antibiotics penicillin (100 u/mL) and streptomycin (100 ug/mL). Drug exposures can be performed for one hour or continuously (drugs added to final plating medium). Tumor cell colonies > 60 uM in size are counted by automated image analysis after 10-20 days of incubation in a humidified, 5-10% CO2-gassed environment maintained at 37°C. Inhibition of colony formation is calculated based on comparisons to control (untreated) plates wherein the growth of hundreds of colonies/plate is typical. […]
Fresh human tumor specimens disaggregated to single cell suspensions and exposed to .001 ug/mL of drug continuously. Percent survival represents the fraction of tumor colonies (> 60 uM size) obtained after drug treatment compared to untreated cells of the same tumor. […] Each tumor sample is analyzed in three different petri dishes (i.e., n = 3 for each sample).

CN(C)CCN1C(=O)c2cccc3cc4ccccc4c(c23)C1=O [Compound 1, 2-[2'-(dimethylamino)ethyl]-1,2-dihydro-3H-dibenz(deh)isoquinoline-1,3-dione]
Experimental Activity, ILS (Percentage Increased Lifespan) [1]: 00:ILS*
Cross Resistance (8226/DOX-40; 8226/DOX-40 versus 8226 Human Myeloma): 3-fold
IC50 (8226/DOX-40; 96 h, 8226/DOX-40, 40-fold resistant to Doxorubicin, 4-day drug exposure, MTT dye reduction, read-out: Activity (IC50)): 0.036 µg/mL (≈ 0.113 µM)
IC50 (8226/DOX-40; 8226 Myeloma Cells Resistant, continuous exposure, MTT dye assay, read-out: IC50 VALUES): 0.03 µg/mL (≈ 0.0942 µM)
Cross Resistance (2780/AD; 2780/AD versus 2780 Human Ovarian Cancer): None
IC50 (2780/AD; Homo sapiens, 96 h, 2780/AD MDR, P-glycoprotein (+), 10-fold resistance to Doxorubicin, 4-day drug exposure, MTT dye reduction): 2.7 µg/mL (≈ 8.48 µM)
Overall Response (FRESH HUMAN TUMORS): 51%

Source: patent EP0536208B1, “1,2-DIHYDRO-3H-DIBENZISOQUINOLINE-1,3-DIONE ANTICANCER AGENTS” (RESEARCH CORPORATION TECHNOLOGIES, INC., priority 1990, dated 1992)
